What was measured:
Assay type in all cases: cell-based
[1] = system: active GTP-bound Ras in ST8814 cells; test: Active Ras pull-down with GST-RafRBD; conditions: 2 μM
Experimental: FIG. 4. IODVA1 inhibits proliferation of cancer model cells. (A) IODVA1 is a potent cell proliferation inhibitor. MCF10A, MCF7, MDA-MB-231, and T47D cells were grown in the presence of the indicated IODVA1 concentrations and counted for 4 or up to 7 days. Each dot and bar is the mean±stdev respectively, of 3 independent experiments, with 2 technical replicates in each experiment. (B) Number of colonies made by MCF7, T47D, and MDA-MB-231 cells at the indicated IODVA1 concentrations. Results shown are mean±stdev of 2 independent experiments with 4 technical replicates each. (C) IODVA1 deactivates Ras at late incubation times. […] Quantification summary of 2 independent experiments is presented in the graph. n.s.—not significant, *-p<0.05, **-p<0.01, ****-p<0.0001. (D) IODVA1 inhibits proliferation of ST8814 cells. ST8814 cells were grown in the presence of the indicated IODVA1 concentrations and counted daily for 4 days. Each dot and bar is the mean and standard deviation respectively, of 3 independent experiments.
To check if IODVA1 inhibits Ras activation in cells, applicants determined the levels of active-GTP-bound-Ras in ST88-14 cells treated with IODVA1 (2 μM) or vehicle control at various time points. GST-RafRBD bound glutathione-beads were incubated with ST8814 cell lysates, thoroughly washed, and the protein complex separated on SDS-PAGE. Levels of GTP-bound pan-RAS proteins bound to RafRBD were determined by immunoblotting.
Levels of active Ras, Rac, Cdc42 and RhoA were determined using the Active Ras Pull-Down and Detection Kit, Active Rac Pull-Down and Detection Kit (Thermo Scientific) and RhoA/Rac1/Cdc4 Pull-down Activation Assay Combo Biochem Kit (Cytoskeleton). Cells were cultured and treated as indicated and lysed in buffer provided by the manufacturer. […] Proteins were resolved by SDS-PAGE, transferred to nitrocellulose and the level of active GTPase relative to input lysate were determined by immunoblotting analysis using the anti-Ras, anti-Rac, anti-Cdc42, or anti-RhoA antibody supplied by the manufacturer.

MCF7 cells = test: Cell spreading on fibronectin; conditions: 30 min exposure, serum-free
Experimental: (§1) FIG. 6: IODVA1 inhibits cell-substratum and cell-cell interactions. (A) IODVA1 impedes spreading of MCF7 and MDA-MB-231 cells on fibronectin. MCF7, T47D, and MDA-MB-231 cells were incubated on fibronectin coated coverslips for 10 min, then further incubated with the indicated concentrations of IODVA1 for 30 min in serum-free media, fixed and observed by bright field microscopy. Areas of single cells were calculated from 6 random fields (no less than 300 cells total per treatment group). Results shown are mean±s.e.m. of a single experiment and are representative of three independent experiments. (B) Effects of IODVA1 treatment on spheroid formation in MCF10A, MCF7, T47D, and MDA-MB-231 cells. […] Aggregates and spheroids were dissociated with accutase and trituration, and the number of live cells was determined by trypan blue exclusion. […]
(§2) Applicants assessed if IODVA1 interferes with cell spreading on the extracellular matrix, an event that is also governed by the rearrangement of the actin cytoskeleton. […] No changes in the area in T47D cells were detected, although more rounded cells in the presence of IODVA1 were observed.
(§3) For cell spreading, MDA-MB-231, MCF7 and T47D were seeded on fibronectin-coated coverslips in serum-free media. […] Six random fields were imaged under 20× objective and cell area of individual cells were quantified to assess the degree of spreading (ImageJ). […]

T47D cells = test: Cell spreading on fibronectin; conditions: 0-3 μM, 30 min
Experimental: as §1, §2, §3

[2] = system: CD34+ human peripheral blood cells transduced with p190-BCR-ABL; test: Proliferation and survival of transduced CD34+ cells on OP-9 stroma
Experimental: Cell proliferation was assessed by flow cytometry. (B) Cells were transduced and cultured as in (A) but incubated with either vehicle or IODVA1 (IO1, 1 or 3 μM) and survival (%) was determined by trypan blue exclusion. […] LDBM cells were transduced with bicistronic p190-BCR-ABL1/EGFP retrovirus and transplanted into recipient mice. After initial assessment of leukemic burden, drugs were delivered in subcutaneously implanted osmotic pumps, each lasting two weeks. (D) Kaplan-Meier survival plot of secondary mice transplants with the 10^6-cell dilution.
IODVA1 specifically targets BCR-ABL B-ALL cells in vitro. To confirm that IODVA1 is specific for oncogene-expressing cells, we tested its efficacy on the proliferation and survival of CD34^+ human peripheral blood mononuclear cells transduced with retroviral bicistronic p190-BCR-ABL or Mieg3 empty vector (Williams, 2000). As expected, expression of BCR-ABL increased cell proliferation (FIG. 10A). Treatment with IODVA1 (IO1, […]) decreased proliferation of BCR-ABL-transformed cells, while proliferation of empty vector Mieg3 transduced cells was not affected. We then assessed survival of p190-BCR-ABL-transformed CD34^+ cells in the presence of IODVA1 by trypan blue exclusion. The survival of p190-BCR-ABL expressing cells decreased in a dose-dependent manner to 60±16% (SEM, N=3) at 1 μM on day 5 and to 1±0.2% (SEM, N=3) at 3 μM on day 3 (FIG. 10B). Survival of empty vector-expressing cells was not affected by IODVA1.

In the case of OC1(c2ccccn2)N=C(Nc2nc3ccccc3[nH]2)N=C1c1ccccn1 (centres unmarked) [IODVA1, (Z)-2-((1H-benzo[d]imidazol-2-yl)imino)-4,5-di(pyridin-2-yl)-2,5-dihydro-1H-imidazol-5-ol], the “levels of active Ras versus vehicle control” value ([1]; 24 h) was “similar”, the “levels of active Ras versus vehicle control” value ([1]; 48 h) was “decrease in active Ras levels is seen” and the “decrease in active Ras levels” value ([1]; 72 h) was “very noticeable”. For the same compound, the “concentration at which spreading is interfered with (decrease in cell area)” value (MCF7 cells) was 0.3 µM, the “changes in cell area” value (T47D cells) was “No changes” and the “survival, trypan blue exclusion” value ([2]; 1 μM, day 5 (SEM, N=3)) was 60±16%. The “survival, trypan blue exclusion” value ([2]; 3 μM, day 3 (SEM, N=3)) was 1±0.2% and the proliferation ([2]; IODVA1 (IO1, μM)) was “decreased”.

— patent US11564913B2, “Compositions and methods for treating cancer” (Children's Hospital Medical Center, priority 2019, dated 2023)
